# Results reported in patent publication US9849146B2, “Inhibition of nonsense mediated mRNA decay by drugs that prevent hypusination of eukaryotic initiation factor 5A” (RUTGERS, THE STATE UNIVERSITY OF NEW JERSEY, priority 2009, dated 2017).
# Entries after “also recorded” stand apart in the source; their conditions may differ.
# How the values were obtained:
# NMD = NMD luciferase reporter assay with vectors containing NMD signals associated with β039-thalassemia; assay type: cell-based; conditions: for submaximal effect of the NMD inhibitor when combined with nonsense suppressor G418: 15 μM CPX, 125 μM DEF, 200 μM HYD, G418 at 800 μM; for drug concentrations at which inhibition of NMD is seen: dose-dependent; for NMD in the thalassemia model system: ratio of Renilla luciferase from NMD-sensitive reporter to matched NMD-insensitive control
# Procedure: The experiment of FIG. 5 used RNA silencing with small interfering RNAs (siRNAs) to deplete eIF5A itself, or either of the modifying enzymes required for hypusine formation. […] Data are shown as ratio of luciferase activities.
# These experiments were carried out in the well-authenticated assay system using vectors containing NMD signals associated with β^039-thalassemia (Woeller C F, Gaspari M, Isken O, Maquat L.: EMBO Rep. 2008 May; 9(5):446-51).
# eIF5A:DOHH complex = target: T1, eIF5A:DOHH complex (Homo sapiens, UniProt Q9BU89); test: Co-immunoprecipitation of the eIF5A:DOHH complex from transfected 293T cells; assay type: cell-based; conditions: CPX 30 μM, DEF 250 μM; for interaction between endogenous eIF5A and tagged DOHH: FLAG-DOHH transfected 293T cells; for association of endogenous DOHH with FLAG-eIF5A (co-immunoprecipitation): GC7 10 μM, P2 30 μM, DFOX 10 μM, 24 hours post-transfection
# T1 construct: Endogenous DOHH co-immunoprecipitated with FLAG-eIF5A; expressed in transfected cells; host or cells: 293T cells (FLAG-eIF5A transfected; DOHH endogenous)
# T1 sequence (Q9BU89 1-302): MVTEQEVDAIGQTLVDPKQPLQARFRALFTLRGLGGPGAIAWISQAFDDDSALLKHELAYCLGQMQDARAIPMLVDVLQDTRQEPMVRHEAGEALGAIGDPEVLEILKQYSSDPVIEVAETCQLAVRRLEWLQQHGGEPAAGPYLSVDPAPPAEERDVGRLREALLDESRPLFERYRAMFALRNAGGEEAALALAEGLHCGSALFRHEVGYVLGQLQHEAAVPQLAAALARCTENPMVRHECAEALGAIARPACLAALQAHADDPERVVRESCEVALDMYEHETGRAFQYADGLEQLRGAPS
# Procedure: Unmodified eIF5A (lysine-50) immunoprecipitates with DHS, and deoxyhypusyl-eIF5A interacts with DOHH in vitro. The deoxyhypusyl-eIF5A:DOHH complex formed in vivo can be detected by immunoprecipitation from cell extracts. Taking advantage of this finding, the effects of the compounds on the enzyme-substrate interaction was tested, the results of which are illustrated in FIG. 2D. FLAG-eIF5A was expressed in 293T cells. 293T cells transfected with FLAG-eIF5A were untreated (-) or treated with GC7 (10 μM) or CPX (30 μM), P2 (30 μM), DEF (250 μM), or DFOX (10 μM). WCE prepared at 24 hours post-transfection was immunoprecipitated with anti-FLAG antibody. Complexes that immunoprecipitated with anti-FLAG antibody were immunoblotted and probed with antibodies against DOHH. […] As a further control, the DHS inhibitor GC7 was included in this assay. […] As expected, none of the compounds affected the immunoprecipitation of FLAG-eIF5A (FIG. 2D, middle panel; note that the band marked with an asterisk (*) is background due to IgG light chain) or the expression of endogenous eIF5A (FIG. 2D, bottom panel).
# (§1) FIG. 2E illustrates 293T cells transfected with FLAG-DHS, FLAG-DOHH or empty vector (control) were treated with GC7, CPX, or DEF, or no drug (-) at the same concentration as in FIG. 2D. Immunoprecipitates obtained with anti-FLAG antibody were immunoblotted and probed with anti-eIF5A antibody (BD). WCE equivalent to 5% of the input was immunoblotted as a further control. Reciprocally, the interaction between endogenous eIF5A and tagged DOHH was inhibited by CPX and DEF (FIG. 2E, right). Similarly, the interaction of endogenous eIF5A with tagged DHS was inhibited by GC7 (FIG. 2E, left), but was resistant to CPX and DEF (not shown).
# [1] = cited from earlier work
# eIF5A:DHS complexes = target: T2, eIF5A:DHS complexes (Homo sapiens, UniProt P49366); test: Co-immunoprecipitation of endogenous eIF5A with FLAG-DHS from transfected 293T cells; assay type: cell-based; conditions: FLAG-DHS transfected 293T cells; GC7 10 μM, CPX 30 μM, DEF 250 μM
# T2 construct: expressed in transfected cells; host or cells: 293T cells (FLAG-DHS transfected; eIF5A endogenous)
# T2 sequence (P49366 1-369): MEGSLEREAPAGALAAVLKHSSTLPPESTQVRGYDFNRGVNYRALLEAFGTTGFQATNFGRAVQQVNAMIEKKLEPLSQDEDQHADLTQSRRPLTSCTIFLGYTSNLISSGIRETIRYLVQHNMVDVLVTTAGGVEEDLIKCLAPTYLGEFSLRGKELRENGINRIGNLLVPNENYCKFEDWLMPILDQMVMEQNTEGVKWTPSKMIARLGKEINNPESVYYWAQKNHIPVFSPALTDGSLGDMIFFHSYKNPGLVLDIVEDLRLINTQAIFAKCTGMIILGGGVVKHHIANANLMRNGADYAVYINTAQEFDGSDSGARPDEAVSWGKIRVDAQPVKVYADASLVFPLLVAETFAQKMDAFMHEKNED
# Procedure: as §1
# DOHH = target: T3, DOHH (Homo sapiens, UniProt Q9BU89); test: Immunoblot of eIF5A modification (maturation) in 293T cells transfected with FLAG-tagged eIF5A; assay type: cell-based; conditions: for concentration range reducing the appearance of mature eIF5A: FLAG-eIF5A, NIH-353 immunoblot
# T3 construct: endogenous in cells; host or cells: 293T cells
# T3 sequence (Q9BU89 1-302): T1 sequence (Q9BU89 1-302)
# Text: To examine the effect of compounds on the synthesis of modified eIF5A, 293T cells transfected with a FLAG-tagged eIF5A expression vector were simultaneously treated with ciclopirox (“CPX”) or deferiprone (“DEF”).
# FLAG-eIF5A was monitored using NIH-353 and anti-FLAG antibodies (FIGS. 2A and 2B). FIG. 2A illustrates inhibition of eIF5A modification in 293T cells. Cells transfected with FLAG-tagged eIF5A were untreated or treated with increasing concentrations of CPX as indicated, or with agent P2. FIG. 2B illustrates cells transfected with FLAG-tagged eIF5A that were untreated or treated with increasing concentrations of DEF as indicated, or with DFOX. At 24 hours post-transfection, whole cell extract (“WCE”) was analyzed by immunoblotting with the NIH-353 anti-eIF5A antibody (upper panel) and anti-actin antibody (lower panel). The […] antibody reacts preferentially with post-translationally modified eIF5A. CPX reduced the appearance of mature eIF5A over the 3-30 μM concentration range, while DEF was effective at 200-400 μM. […] In addition to the CPX homolog Agent P2, deferoxamine (“DFOX”; Desferal™) was used as a control compound. DFOX, a metal-binding hydroxamate like CPX and Agent P2 (FIG. 3), is a globally used medicinal iron chelator.
# FIG. 2C illustrates cells transfected with FLAG-tagged eIF5A that were treated with CPX (30 μM), P2 (30 μM), DEF (250 μM), DFOX (10 μM), or no compound (-). At 24 hours post transfection, WCE was analyzed by immunoblotting with the NIH-353 anti-eIF5A antibody (upper panel) and anti-FLAG antibody (lower panel). The control culture was transfected with empty vector and no compound was added.
# [2] = 293T cells, 24 hours post-transfection
Structure (SMILES),submaximal effect of the NMD inhibitor when combined with nonsense suppressor G418 (NMD),drug concentrations at which inhibition of NMD is seen (NMD; thalassemia model system),NMD in the thalassemia model system (NMD),interaction between endogenous eIF5A and tagged DOHH (eIF5A:DOHH complex),association of endogenous DOHH with FLAG-eIF5A (co-immunoprecipitation) (eIF5A:DOHH complex),interaction of endogenous eIF5A with tagged DHS (eIF5A:DHS complexes),concentration range reducing the appearance of mature eIF5A (DOHH; [2]),further results
"Cc1c(O)c(=O)ccn1C [DEF, deferiprone]",distinctly enhanced,125/250,inhibited,inhibited,largely prevented; also recorded: destabilized,resistant,200 to 400 µM,"NMD inhibition by single compound (NMD; DEF at 125 μM, HYD at 200 μM, each alone): ineffective individually; concentration in serum ([1]; after oral medication): ≥ 250 µM"
Cc1ccn(O)c(=O)c1 [P2],,,,,neither P2 or DFOX prevented; also recorded: Neither DFOX nor P2 had any effect,,,"activity in cell-based assays (DOHH): little or no activity; effect on the appearance of mature FLAG-eIF5A (DOHH; 293T cells, 24 hours post-transfection, control compounds): little or no effect"
"Cc1cc(C2CCCCC2)n(O)c(=O)c1 [CPX, ciclopirox]",distinctly enhanced,15/30,inhibited,inhibited,largely prevented; also recorded: destabilized,resistant,3 to 30 µM,levels in skin ([1]; topical preparations containing up to 57.5 mM): > 30 µM
NCCCCCCCN=C(N)N [GC7],,,,,No DOHH was associated with FLAG-eIF5A,inhibited; also recorded: blocked formation,,
"NNc1nncc2ccccc12 [HYD, hydralazine]",,200/400,,,,,,
CN[C@@H]1[C@@H](O)[C@@H](O[C@@H]2[C@@H](O)[C@H](O[C@H]3O[C@H]([C@@H](C)O)[C@@H](O)[C@H](O)[C@H]3N)[C@@H](N)C[C@H]2N)OC[C@]1(C)O [G418],,,,,,,,"effect on expression (nonsense suppressor, for comparison) (NMD; thalassemia model system): expression-enhancing effect"
